Key:
[1] = tested on: anti-streptavidin (IgG2 antibody); assay: Thermal aggregation of anti-streptavidin at 52° C. for 10 days; type: physicochemical; conditions: 10 mM antioxidant; 50 mM sodium acetate pH 5.00; no UV
Protocol: The SEC-HPLC conditions were as follows: a G3000 TOSOH SWXL column was used and the flowrate was set at 0.5 mL/min. […] Anti-streptavidin was formulated in 50 mM sodium acetate at pH 5.00. These formulations were not exposed to UV radiation but assessed on their thermal stability.

EPO = assay: SEC-HPLC aggregation/degradation of EPO after UV-B exposure; type: physicochemical, human; conditions: pH 6.90, 302 nm UV-B 24 hours
Protocol: For the examples below involving exposure to UVB radiation, each sample was exposed to UVB light (λ≈302 nm) for varying times, using a UVP 8W model UVLMS-38 lamp at 4° C. The formulations were then analyzed using size exclusion chromatography high pressure liquid chromatography (SEC-HPLC). Aggregation (measured via SEC-HPLC analysis) and binding (measured using CM5 gold sensor chips) were measured to determine the effect of the antioxidant on aggregation and bioactivity of the therapeutic protein. The SEC-HPLC conditions were as follows: a G3000 TOSOH SWXL column was used and the flowrate was set at 0.5 mL/min. […] FIG. 4 (EPO), FIG. 5 (anti-streptavidin), and FIG. 6 (Antibody A) show SEC-HPLC chromatograms of each proteins following exposure to 302 nm UV-B light for 24 hours. […] Each formulation was then exposed to 302 nm UV-B light for 24 hours. The protein formulation was then analyzed using SEC-HPLC.

Antibody A (IgG1) = assay: SEC-HPLC aggregation of Antibody A (IgG1) after UV-B exposure; type: physicochemical; conditions: 20 mM antioxidant; 1 mg/mL Antibody A, 10 mM sodium acetate, 9% sucrose, pH 5.20; 302 nm UV-B 24 hours
Protocol: (§2) The SEC-HPLC conditions were as follows: a G3000 TOSOH SWXL column was used and the flowrate was set at 0.5 mL/min. […] For both IgG1 and IgG2, the mobile phase was 80 mM sodium phosphate, 300 mM sodium perchlorate, 10% isopropanol, pH 7.2, and each sample was run for 45 minutes.
(§3) For FIG. 5, the anti-streptavidin formulation was prepared having the following characteristics: 1 mg/mL anti-streptavidin mAb (IgG2), 10 mM sodium acetate, 5% sorbitol, and pH 5.00. For FIG. 6, the Antibody A formulation was prepared having the following characteristics: 1 mg/mL Antibody A (IgG1), 10 mM sodium acetate, 9% sucrose, and pH 5.20.

[2] = tested on: Antibody B binding to protein A; assay: Binding of Antibody B to protein A after UV-B exposure of the formulation; conditions: 20 mM additive; pH 6.90 phosphate buffer; 0-24 hours UV-B
Protocol: For the examples below involving exposure to UVB radiation, each sample was exposed to UVB light (λ≈302 nm) for varying times, using a UVP 8W model UVLMS-38 lamp at 4° C. The formulations were then analyzed using size exclusion chromatography high pressure liquid chromatography (SEC-HPLC). Aggregation (measured via SEC-HPLC analysis) and binding (measured using CM5 gold sensor chips) were measured to determine the effect of the antioxidant on aggregation and bioactivity of the therapeutic protein.
The binding activity of therapeutic protein to a ligand (e.g. to an antibody or binding partner, or, in cases where the therapeutic was an antibody, binding activity to the specific target antigen or to protein A) was determined as follows. […] The therapeutic protein-binding ligand of interest was injected until the desired immobilization level was achieved (above 5000 response units). Three different therapeutic protein-binding ligands were measured—Antibody A's target antigen, Protein A, and D11 (an antibody that binds to erythropoietin). […] The remaining activated groups were blocked with 1.0 M ethanolamine-HCl, pH 8.5.
A standard curve was prepared by using native forms of the therapeutic protein of interest. Native forms of the therapeutic protein were diluted in HBS-EP buffer (pH 7.4) to concentrations between 1 and 5 μg/mL, and then injected on the column, prepared as described above to obtain a standard curve. At the end of each sample run, regeneration buffer was used to wash away any bound therapeutic protein in preparation for subsequent injections.
Various UV-stressed antibody formulations were also diluted in HBS-EP buffer (pH 7.4) to a concentration within the standard curve region, and injected to quantitate the loss of bioactivity to its respective ligand-binding partner.

[3] = tested on: Antibody A binding to protein A; assay: Binding of Antibody A to protein A (CM5 sensor chip) after UV-B exposure of the formulation; conditions: 20 mM antioxidant; pH 5.20 acetate buffer; 302 nm UV light over 24 hours
Protocol: (§1) For the examples below involving exposure to UVB radiation, each sample was exposed to UVB light (λ≈302 nm) for varying times, using a UVP 8W model UVLMS-38 lamp at 4° C. The formulations were then analyzed using size exclusion chromatography high pressure liquid chromatography (SEC-HPLC). Aggregation (measured via SEC-HPLC analysis) and binding (measured using CM5 gold sensor chips) were measured to determine the effect of the antioxidant on aggregation and bioactivity of the therapeutic protein. The binding activity of therapeutic protein to a ligand (e.g. to an antibody or binding partner, or, in cases where the therapeutic was an antibody, binding activity to the specific target antigen or to protein A) was determined as follows. […] The therapeutic protein-binding ligand of interest was injected until the desired immobilization level was achieved (above 5000 response units). Three different therapeutic protein-binding ligands were measured—Antibody A's target antigen, Protein A, and D11 (an antibody that binds to erythropoietin). […] The remaining activated groups were blocked with 1.0 M ethanolamine-HCl, pH 8.5. […] Various UV-stressed antibody formulations were also diluted in HBS-EP buffer (pH 7.4) to a concentration within the standard curve region, and injected to quantitate the loss of bioactivity to its respective ligand-binding partner.

[4] = tested on: anti-streptavidin mAb (IgG2); assay: SEC-HPLC aggregation of anti-streptavidin (IgG2) after UV-B exposure; type: physicochemical; conditions: 20 mM antioxidant; 1 mg/mL anti-streptavidin, 10 mM sodium acetate, 5% sorbitol, pH 5.00; 302 nm UV-B 24 hours
Protocol: as §2, §3

[5] = tested on: Antibody A binding to its target antigen; assay: Binding of Antibody A to its target antigen (CM5 sensor chip) after UV-B exposure of the formulation; conditions: 20 mM antioxidant; pH 5.20 acetate buffer; 302 nm UV light over 24 hours
Protocol: as §1

Antibody A = assay: Discoloration (yellowing) of Antibody A formulations after UV-B exposure; type: physicochemical; conditions: UV-B light 24 hours
Excerpt: Discoloration can be assessed visually or by measurement of absorbance at a specific wavelength.
Proteins may also become yellow in color following exposure to UV light.
Pyridoxine is another water soluble B-vitamin (B6) which was studied as a possible antioxidant for preventing protein aggregation caused by UV-B exposure.

## COc1cc(/C=C/C(=O)O)ccc1O [ferulic acid]
[1]
  aggregation of anti-streptavidin after 10 days at 52° C.: contributed to the aggregation of anti-streptavidin
EPO; 0.1 mM antioxidant, 0.336 mg/mL EPO, 20 mM sodium phosphate
  amount of EPO dimer and aggregate caused by UV light (SEC-HPLC): able to reduce the amount of EPO dimer and aggregate
EPO; 0.1 mM antioxidant, 0.336 mg/mL EPO
  prevention of EPO degradation compared with 10 mM methionine (SEC-HPLC): able to prevent EPO degradation more effectively than 10 mM methionine
EPO; 20 mM antioxidant, 1 mg/mL EPO, 25 mM sodium phosphate, 125 mM sodium chloride
  amount of aggregate of EPO (SEC-HPLC): dramatically reduced
Antibody A (IgG1)
  amount of aggregate of Antibody A (SEC-HPLC): dramatically reduced
[2]
  binding of Antibody B to protein A after UV-B exposure: prevented UV-B induced degradation
[3]
  binding of Antibody A to protein A after UV exposure: preserved
[4]
  amount of aggregate of anti-streptavidin (SEC-HPLC): dramatically reduced
[5]
  binding of Antibody A to its target antigen after UV exposure: preserved
Antibody A; 10 mM additive alone
  yellowing of Antibody A formulation: no appreciable yellowing
Antibody A; 10 mM antioxidant in the presence of 10 mM methionine
  yellowing of Antibody A formulation: no appreciable yellowing

— patent US12440567B2, “Aqueous antibody formulation stabilized by antioxidants for parenteral administration” (AMGEN INC., priority 2007, dated 2025)
